The values that follow are results of earlier work, collected in patent US8003690B2, “Topical nanoparticulate spironolactone formulation” (Jagotec AG, priority 2002, dated 2011).

Take `CC(=O)S[C@@H]1CC2=CC(=O)CC[C@]2(C)[C@H]2CC[C@@]3(C)[C@@H](CC[C@@]34CCC(=O)O4)[C@H]12` [Spironolactone]: the solubility in water is reported as 2.8 mg/100 ml.
